ChEMBL document CHEMBL1201862, “PubChem BioAssay data set” (2004)
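Method: 48-hour compound exposure of cells in 96-well plates, five concentrations, linear interpolation of endpoints. GI50 = concentration required for 50% inhibition of growth.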 Calls of active or inactive are those of the source. Cut-off read from the data, not from the text of the source: active = GI50 up to about 1.1 µM and inactive = higher.

Assays:
Test in all cases: NCI tumour cell line growth inhibition, 48 h
NCI-H460 = system: NCI-H460
COLO 205 = system: COLO 205
HCC 2998 = system: HCC 2998
SF-539 = system: SF-539
786-0 = system: 786-0
SK-MEL-28 = system: SK-MEL-28
SK-OV-3 = system: SK-OV-3
UACC-62 = system: UACC-62
SK-MEL-2 = system: SK-MEL-2
SR = system: SR
SF-295 = system: SF-295
M14 = system: M14
CCRF-CEM = system: CCRF-CEM
OVCAR-8 = system: OVCAR-8
RPMI-8226 = system: RPMI-8226
UACC-257 = system: UACC-257

Measured: GI50

COc1cc(OC)cc(C(=O)Cc2c(C(=O)c3ccccc3)c3ccccc3n2C(=O)c2ccccc2)c1
inactive: NCI-H460 15.5 µM | COLO 205 28.6 µM | HCC 2998 43.4 µM | SF-539 30.2 µM | 786-0 38.9 µM | SK-MEL-28 34.4 µM | SK-OV-3 22.8 µM | UACC-62 35.4 µM | SK-MEL-2 20.5 µM | SR 14.2 µM | SF-295 19.5 µM | M14 32.2 µM | CCRF-CEM 16 µM | OVCAR-8 16.9 µM | RPMI-8226 9.29 µM

COC(=O)CC(=O)NCC1=CCC(=O)CC1
inactive: NCI-H460 > 100 µM | COLO 205 > 100 µM | HCC 2998 > 100 µM | SF-539 > 100 µM | 786-0 > 100 µM | SK-MEL-28 > 100 µM | SK-OV-3 > 100 µM | UACC-62 > 100 µM | SK-MEL-2 > 100 µM | SF-295 > 100 µM | M14 > 100 µM | UACC-257 > 100 µM | CCRF-CEM > 100 µM | OVCAR-8 > 100 µM | RPMI-8226 > 100 µM

NC(=S)N/N=C(/CC(=O)c1ccc([N+](=O)[O-])cc1)C(=O)Nc1ncc([N+](=O)[O-])s1
inactive: NCI-H460 > 100 µM | COLO 205 > 100 µM | HCC 2998 > 100 µM | 786-0 > 100 µM | SK-MEL-28 > 100 µM | UACC-62 52.7 µM | SK-MEL-2 > 100 µM | SF-295 > 100 µM | M14 > 100 µM | UACC-257 > 100 µM | CCRF-CEM 82.4 µM | OVCAR-8 > 100 µM | RPMI-8226 > 100 µM

C1CCN(c2nsc(N3CCCCC3)n2)CC1
inactive: NCI-H460 > 100 µM | HCC 2998 > 100 µM | SF-539 > 100 µM | 786-0 > 100 µM | SK-MEL-28 > 100 µM | SK-OV-3 > 100 µM | UACC-62 > 100 µM | SK-MEL-2 > 100 µM | SR > 100 µM | SF-295 > 100 µM | M14 > 100 µM | UACC-257 > 100 µM | CCRF-CEM > 100 µM | OVCAR-8 > 100 µM | RPMI-8226 87.3 µM

O=C(O)c1cc(=O)c2c([nH]c3ccccc32)s1
inactive: NCI-H460 > 100 µM | COLO 205 > 100 µM | HCC 2998 > 100 µM | 786-0 > 100 µM | SK-MEL-28 > 100 µM | SK-OV-3 > 100 µM | UACC-62 > 100 µM | SK-MEL-2 > 100 µM | SF-295 > 100 µM | M14 > 100 µM | UACC-257 > 100 µM | CCRF-CEM > 100 µM | OVCAR-8 > 100 µM | RPMI-8226 > 100 µM

CC1=C(C(=O)Nc2ccc([N+](=O)[O-])cc2)C(c2ccco2)C(C(=O)Nc2ccc([N+](=O)[O-])cc2)=C(C)N1
inactive: NCI-H460 20.1 µM | COLO 205 15.8 µM | HCC 2998 8.77 µM | SF-539 16.5 µM | 786-0 31.8 µM | SK-MEL-28 28.2 µM | SK-OV-3 9.35 µM | SK-MEL-2 7.52 µM | SF-295 28.1 µM | M14 21.9 µM | UACC-257 18.5 µM | CCRF-CEM 5.18 µM | OVCAR-8 26.9 µM | RPMI-8226 2.9 µM

CCCCCCCCCCCCCC(=O)OCC1OC(=O)C(O)C1O (centres undefined)
inactive: COLO 205 > 100 µM | HCC 2998 > 100 µM | SF-539 > 100 µM | 786-0 > 100 µM | SK-MEL-28 > 100 µM | SK-OV-3 > 100 µM | UACC-62 > 100 µM | SR > 100 µM | SF-295 88.7 µM | M14 > 100 µM | UACC-257 > 100 µM | CCRF-CEM > 100 µM | OVCAR-8 > 100 µM | RPMI-8226 > 100 µM

CC(C(=O)Oc1ccc2ccccc2c1-c1c(O)ccc2ccccc12)c1ccccc1 (centres undefined)
inactive: NCI-H460 13.7 µM | COLO 205 17.1 µM | HCC 2998 14.5 µM | SF-539 16.3 µM | 786-0 14.8 µM | SK-MEL-28 15.4 µM | SK-OV-3 15.4 µM | UACC-62 13 µM | SK-MEL-2 15.1 µM | SF-295 12.7 µM | M14 13.2 µM | UACC-257 13.7 µM | CCRF-CEM 16.3 µM | OVCAR-8 18.8 µM | RPMI-8226 15.3 µM

CC(=O)C1C(=O)NC(=O)C1=O (centres undefined)
inactive: NCI-H460 > 100 µM | COLO 205 > 100 µM | HCC 2998 > 100 µM | SF-539 > 100 µM | 786-0 > 100 µM | SK-MEL-28 > 100 µM | SK-OV-3 > 100 µM | UACC-62 > 100 µM | SK-MEL-2 > 100 µM | SF-295 > 100 µM | M14 > 100 µM | UACC-257 > 100 µM | OVCAR-8 > 100 µM | RPMI-8226 > 100 µM
